Reference: the NIST ThermoML archive (doi:10.1016/j.jct.2011.08.016)

Test: xn = mol fraction of the nth substance listed
Details: Liquid, Vibrating tube method

CCCCCCCCCC [decane] + CCCCCCCC
Details | mass density [kg/m3]
323.15 K, 13000 kPa, x2 = 0.7736 | 698.56
323.15 K, 13000 kPa, x2 = 0.9623 | 692.26
323.15 K, 14000 kPa, x2 = 0.5314 | 706.56
323.15 K, 14000 kPa, x2 = 0.7736 | 699.43
323.15 K, 14000 kPa, x2 = 0.9623 | 693.16
323.15 K, 15000 kPa, x2 = 0.5314 | 707.39
323.15 K, 15000 kPa, x2 = 0.7736 | 700.3
323.15 K, 15000 kPa, x2 = 0.9623 | 694.06
323.15 K, 16000 kPa, x2 = 0.5314 | 708.22
323.15 K, 16000 kPa, x2 = 0.7736 | 701.16
323.15 K, 16000 kPa, x2 = 0.9623 | 694.94
323.15 K, 17000 kPa, x2 = 0.5314 | 709.02
323.15 K, 17000 kPa, x2 = 0.7736 | 702
323.15 K, 17000 kPa, x2 = 0.9623 | 695.8
323.15 K, 18000 kPa, x2 = 0.5314 | 709.85
323.15 K, 18000 kPa, x2 = 0.7736 | 702.81
323.15 K, 18000 kPa, x2 = 0.9623 | 696.65
323.15 K, 19000 kPa, x2 = 0.5314 | 710.62
323.15 K, 19000 kPa, x2 = 0.7736 | 703.6
323.15 K, 19000 kPa, x2 = 0.9623 | 697.48
323.15 K, 20000 kPa, x2 = 0.5314 | 711.38
323.15 K, 20000 kPa, x2 = 0.7736 | 704.4
323.15 K, 20000 kPa, x2 = 0.9623 | 698.3
323.15 K, 21000 kPa, x2 = 0.5314 | 712.12
323.15 K, 21000 kPa, x2 = 0.7736 | 705.18
323.15 K, 21000 kPa, x2 = 0.9623 | 699.1
323.15 K, 22000 kPa, x2 = 0.5314 | 712.85
323.15 K, 22000 kPa, x2 = 0.7736 | 705.95
323.15 K, 22000 kPa, x2 = 0.9623 | 699.83
323.15 K, 23000 kPa, x2 = 0.5314 | 713.54
323.15 K, 23000 kPa, x2 = 0.7736 | 706.68
323.15 K, 23000 kPa, x2 = 0.9623 | 700.57
323.15 K, 24000 kPa, x2 = 0.5314 | 714.24
323.15 K, 24000 kPa, x2 = 0.7736 | 707.39
323.15 K, 24000 kPa, x2 = 0.9623 | 701.31
323.15 K, 25000 kPa, x2 = 0.5314 | 714.88
323.15 K, 25000 kPa, x2 = 0.7736 | 708.08
323.15 K, 25000 kPa, x2 = 0.9623 | 702
323.19 K, 1000 kPa, x2 = 0.0616 | 706.61
323.19 K, 2000 kPa, x2 = 0.0616 | 707.46
323.19 K, 3000 kPa, x2 = 0.0616 | 708.43
323.19 K, 4000 kPa, x2 = 0.0616 | 709.27
323.19 K, 5000 kPa, x2 = 0.0616 | 710.19
323.19 K, 6000 kPa, x2 = 0.0616 | 711.06
323.19 K, 7000 kPa, x2 = 0.0616 | 711.94
323.19 K, 8000 kPa, x2 = 0.0616 | 712.81
323.19 K, 9000 kPa, x2 = 0.0616 | 713.68
323.19 K, 10000 kPa, x2 = 0.0616 | 714.53
323.19 K, 10990 kPa, x2 = 0.0616 | 715.36
323.19 K, 12000 kPa, x2 = 0.0616 | 716.18
323.19 K, 13000 kPa, x2 = 0.0616 | 716.99
323.19 K, 14000 kPa, x2 = 0.0616 | 717.79
323.19 K, 15000 kPa, x2 = 0.0616 | 718.57
323.19 K, 16000 kPa, x2 = 0.0616 | 719.34
323.19 K, 17000 kPa, x2 = 0.0616 | 720.12
323.19 K, 18000 kPa, x2 = 0.0616 | 720.9
323.19 K, 19000 kPa, x2 = 0.0616 | 721.64
323.19 K, 20000 kPa, x2 = 0.0616 | 722.37
323.19 K, 21000 kPa, x2 = 0.0616 | 723.09
323.19 K, 22000 kPa, x2 = 0.0616 | 723.78
323.19 K, 23000 kPa, x2 = 0.0616 | 724.44
323.19 K, 24000 kPa, x2 = 0.0616 | 725.08
323.19 K, 25000 kPa, x2 = 0.0616 | 725.73
333.12 K, 1000 kPa, x2 = 0.0616 | 698.91
333.12 K, 1000 kPa, x2 = 0.2801 | 693.73
333.12 K, 2000 kPa, x2 = 0.0616 | 699.91
333.12 K, 2000 kPa, x2 = 0.2801 | 694.68
333.12 K, 3000 kPa, x2 = 0.0616 | 700.87
333.12 K, 3000 kPa, x2 = 0.2801 | 695.65
333.12 K, 4000 kPa, x2 = 0.0616 | 701.83
333.12 K, 4000 kPa, x2 = 0.2801 | 696.63
333.12 K, 5000 kPa, x2 = 0.0616 | 702.77
333.12 K, 5000 kPa, x2 = 0.2801 | 697.61
333.12 K, 6000 kPa, x2 = 0.0616 | 703.69
333.12 K, 6000 kPa, x2 = 0.2801 | 698.55
333.12 K, 7000 kPa, x2 = 0.0616 | 704.67
333.12 K, 7000 kPa, x2 = 0.2801 | 699.5
333.12 K, 8000 kPa, x2 = 0.0616 | 705.56
333.12 K, 8000 kPa, x2 = 0.2801 | 700.43
333.12 K, 9000 kPa, x2 = 0.0616 | 706.45
333.12 K, 9000 kPa, x2 = 0.2801 | 701.36
333.12 K, 10000 kPa, x2 = 0.0616 | 707.38
333.12 K, 10000 kPa, x2 = 0.2801 | 702.27
333.12 K, 10990 kPa, x2 = 0.0616 | 708.26
333.12 K, 10990 kPa, x2 = 0.2801 | 703.19
333.12 K, 12000 kPa, x2 = 0.0616 | 709.09
333.12 K, 12000 kPa, x2 = 0.2801 | 704.1
333.12 K, 13000 kPa, x2 = 0.0616 | 709.96
333.12 K, 13000 kPa, x2 = 0.2801 | 704.98
333.12 K, 14000 kPa, x2 = 0.0616 | 710.8
333.12 K, 14000 kPa, x2 = 0.2801 | 705.81
333.12 K, 15000 kPa, x2 = 0.0616 | 711.63
333.12 K, 15000 kPa, x2 = 0.2801 | 706.72
333.12 K, 16000 kPa, x2 = 0.0616 | 712.43
